Drawing on US8759522B2, “Inhibitors of protein tyrosine kinase activity” (Methylgene Inc., priority 2008, dated 2014), this text covers inhibition in vivo for six molecules.

The experiment has as its system CNV progression. As to the kind of experiment: In vivo choroidal neovascularization (CNV) model. The conditions noted are these: 240 h; rat laser-induced CNV, 30 nmol/eye injection on Day 3, CNV area on Day 10 vs vehicle-treated group. More on the design: species or system Brown-Norway rats. From the text:
In vivo Choroidal Neovascularization (CNV) Model
This test measures the capacity of compounds to inhibit CNV progression. CNV is the main cause of severe vision loss in patients suffering from age-related macular degeneration (AMD).
Male Brown-Norway rats (Japan Clea Co., Ltd.) were used in these studies.
Rats were anesthetized by intraperitoneal injection of pentobarbital, and the right pupil was dilated with 0.5% tropicamide and 0.5% phenylephrine hydrochloride. The right eye received 6 laser burns between retinal vessels using a slit lamp delivery system of Green laser Photocoagulator (Nidex Inc., Japan), and microscope slide glass with Healon™ (AMO Inc) used as a contact lens. The laser power was 100 or 200 mW for 0.1 second and spot diameter was 100 μm. At the time of laser burn, bubble production was observed, which is an indication of rupture of Bruch's membrane which is important for CNV generation.
Rats were divided into the groups based on their body weight using SAS software (SAS institute Japan, R8.1) after laser irradiation (Day 0). After animals were anesthetized, and the right pupil dilated (as above mentioned), the right eye of the animal received the compound or vehicle by an injection (10 μL/eye) at doses of 30 nmol/eye on Day 3. The compounds were dissolved or suspended in CBS, PBS, or other adequate vehicles before injection.
On Day 10, the animals were anesthetized with ether, and high molecular weight fluorescein isothiocyanate (FITC)-dextran (SIGMA, 2×10^6 MW) was injected via a tail vein (20 mg/rat). About 30 min after FITC-dextran injection, animals were euthanized by ether or carbon dioxide, and the eyes were removed and fixed with 10% formaline neutral buffer solution. After over 1 hour of fixation, RPE-choroid-sclera flat mounts were obtained by removing cornea, lens and retina from the eyeballs. The flat mounts were mounted in 50% glycerol on a microscope slide, and the portion burned by laser was photographed using a fluorescence microscope (Nikon Corporation, excitation filter: 465-495 nm, absorption filter: 515-555 nm). The CNV area was obtained by measurement of hyper-fluorescence area observed on the photograph using Scion image.
The average CNV area of 6 burns was used as an individual value of CNV area, and the average CNV area of compound treated group was compared with that of the vehicle-treated group.

As usually defined, the inhibition in vivo is how much of the control response was suppressed. Read a high inhibition in vivo as a strong effect.

Regarding `COCCOCCNCc1ccc(-c2cc3nccc(Oc4ccc(NC(=O)Nc5cc(C)on5)cc4F)c3s2)nc1` [Compound 392, 1-(3-fluoro-4-(2-(5-((2-(2-methoxyethoxy)ethylamino)methyl)pyridin-2-yl)thieno[3,2-b]pyridin-7-yloxy)phenyl)-3-(5-methylisoxazol-3-yl)urea], the inhibition in vivo at 30 nmol/eye was in the range of 40 to 60%. Under `COCCNCc1ccc(-c2cc3nccc(Oc4ccc(NC(=O)Nc5nc(C)cs5)cc4F)c3s2)nc1` [Compound 397, 1-(3-fluoro-4-(2-(5-((2-methoxyethylamino)methyl)pyridin-2-yl)thieno[3,2-b]pyridin-7-yloxy)phenyl)-3-(4-methylthiazol-2-yl)urea] stands 40 to 60%; under `COCCNCc1ccc(-c2cc3nccc(Oc4ccc(NC(=O)Nc5cccc(S(N)(=O)=O)c5)cc4F)c3s2)nc1` [Compound 403, 3-(3-(3-fluoro-4-(2-(5-((2-methoxyethylamino)methyl)pyridin-2-yl)thieno[3,2-b]pyridin-7-yloxy)phenyl)ureido)benzenesulfonamide], no less than 60%. Under `COCCN(Cc1ccc(-c2cc3nccc(Oc4ccc(NC(=O)Nc5cccc(S(C)(=O)=O)c5)cc4F)c3s2)nc1)C(C)=O` [Compound 413, N-((6-(7-(2-fluoro-4-(3-(3-(methylsulfonyl)phenyl)ureido)phenoxy)thieno[3,2-b]pyridin-2-yl)pyridin-3-yl)methyl)-N-(2-methoxyethyl)acetamide] stands no less than 60%; under `COCCNCc1ccc(-c2cc3nccc(Oc4ccc(NC(=O)NC5CCC5)cc4F)c3s2)nc1` [Compound 414, 1-cyclobutyl-3-(3-fluoro-4-(2-(5-((2-methoxyethylamino)methyl)pyridin-2-yl)thieno[3,2-b]pyridin-7-yloxy)phenyl)urea], 40 to 60%. Consider `COCCN(Cc1ccc(-c2cc3nccc(Oc4ccc(NC(=O)Nc5cccc(C(N)=O)c5)cc4F)c3s2)nc1)C(=O)OC` [Compound 419, methyl (6-(7-(4-(3-(3-carbamoylphenyl)ureido)-2-fluorophenoxy)thieno[3,2-b]pyridin-2-yl)pyridin-3-yl)methyl(2-methoxyethyl)carbamate], for which the inhibition in vivo at 30 nmol/eye is 40 to 60%.
